Here are results for four compounds from PubChem BioAssay AID1259407 (Chemical Carcinogenesis Research Information System (CCRIS), 2018).

Active and inactive are the calls of the source. The rule behind the calls is not given here.

This series has as its system CCRIS mutagenicity, Ames/micronucleus/aberration tests. The series can be described thus: CCRIS mutagenicity studies.
The mark [1] stands for this setting: Test System: AMES SALMONELLA TYPHIMURIUM, Strain/Indicator: TA98, Metabolic Activation: NONE, Method: PREINCUBATION
Setting [2] is: Test System: AMES SALMONELLA TYPHIMURIUM, Strain/Indicator: TA100, Metabolic Activation: NONE, Method: PREINCUBATION
Where [3] appears, read: Test System: AMES SALMONELLA TYPHIMURIUM, Strain/Indicator: TA100, Metabolic Activation: NONE, Method: STANDARD PLATE.
Setting [4] is: Test System: AMES SALMONELLA TYPHIMURIUM, Strain/Indicator: TA1535, Metabolic Activation: NONE, Method: PREINCUBATION
The mark [5] stands for this setting: Test System: AMES SALMONELLA TYPHIMURIUM, Strain/Indicator: TA98, Metabolic Activation: NONE, Method: STANDARD PLATE.
Where [6] appears, read: Test System: AMES SALMONELLA TYPHIMURIUM, Strain/Indicator: TA98, Metabolic Activation: RAT, LIVER, S-9, AROCLOR 1254, Method: STANDARD PLATE.
The mark [7] stands for this setting: Test System: AMES SALMONELLA TYPHIMURIUM, Strain/Indicator: TA100, Metabolic Activation: RAT, LIVER, S-9, AROCLOR 1254, Method: STANDARD PLATE.

On to `ClCc1ccc(Cl)cc1`, for which the mutagenic call is, setting by setting: (End Point: In vitro chromosomal aberrations, Test System: Chinese hamster lung (CHL/IU) cells, Metabolic Activation: Rat, Liver, S9, Phenobarbital and 5,6-benzoflavone) “active; positive (structural changes and ploidy). precipitation in the culture medium at”; under setting [1], “inactive; negative”; (Test System: AMES SALMONELLA TYPHIMURIUM, Strain/Indicator: TA98, Metabolic Activation: RAT LIVER S-9, PHENOBARBITAL AND BETA-NAPHTHOFLAVONE, Method: PREINCUBATION) “inactive; negative”; under setting [2], “inactive; negative”; under setting [3], “inactive; negative”; (Test System: AMES SALMONELLA TYPHIMURIUM, Strain/Indicator: TA100, Metabolic Activation: RAT LIVER S-9, PHENOBARBITAL AND BETA-NAPHTHOFLAVONE, Method: PREINCUBATION) “inactive; negative”. Further, the mutagenic call is “inactive; negative” (Test System: AMES SALMONELLA TYPHIMURIUM, Strain/Indicator: TA102, Metabolic Activation: NONE, Method: PREINCUBATION); “inactive; negative” (Test System: AMES SALMONELLA TYPHIMURIUM, Strain/Indicator: TA102, Metabolic Activation: RAT LIVER S-9, PHENOBARBITAL AND BETA-NAPHTHOFLAVONE, Method: PREINCUBATION); “inactive; negative” (Test System: AMES SALMONELLA TYPHIMURIUM, Strain/Indicator: TA104, Metabolic Activation: NONE, Method: PREINCUBATION); “inactive; negative” (Test System: AMES SALMONELLA TYPHIMURIUM, Strain/Indicator: TA104, Metabolic Activation: RAT LIVER S-9, PHENOBARBITAL AND BETA-NAPHTHOFLAVONE, Method: PREINCUBATION); “inactive; negative” under setting [4]; “inactive; negative” (Test System: AMES SALMONELLA TYPHIMURIUM, Strain/Indicator: TA1535, Metabolic Activation: RAT LIVER S-9, PHENOBARBITAL AND BETA-NAPHTHOFLAVONE, Method: PREINCUBATION). Moreover, the mutagenic call (Test System: AMES SALMONELLA TYPHIMURIUM, Strain/Indicator: TA1537, Metabolic Activation: NONE, Method: PREINCUBATION) is “inactive; negative”; the mutagenic call (Test System: AMES SALMONELLA TYPHIMURIUM, Strain/Indicator: TA1537, Metabolic Activation: RAT LIVER S-9, PHENOBARBITAL AND BETA-NAPHTHOFLAVONE, Method: PREINCUBATION) is “inactive; negative”; the mutagenic call (Test System: E.COLI, Strain/Indicator: WP2UVRA/PKM101, Metabolic Activation: NONE, Method: PREINCUBATION) is “inactive; negative”; the mutagenic call (Test System: E.COLI, Strain/Indicator: WP2UVRA/PKM101, Metabolic Activation: RAT LIVER S-9, PHENOBARBITAL AND BETA-NAPHTHOFLAVONE, Method: PREINCUBATION) was “inactive; negative”; the mutagenic call (Test System: E.COLI, Strain/Indicator: WP2UVRA, Metabolic Activation: NONE, Method: PREINCUBATION) is “inactive; negative”; the mutagenic call (Test System: E.COLI, Strain/Indicator: WP2UVRA, Metabolic Activation: RAT LIVER S-9, PHENOBARBITAL AND BETA-NAPHTHOFLAVONE, Method: PREINCUBATION) was “inactive; negative”.
For `O=C1C(=O)c2cccc3cccc1c23`, the mutagenic call was “inactive; negative” (Test System: AMES SALMONELLA TYPHIMURIUM, Strain/Indicator: TA98, Metabolic Activation: HAMSTER, LIVER, S-9, AROCLOR 1254, Method: STANDARD PLATE); “active; positive” under setting [5]; “active; positive” under setting [6]; “active; positive” (Test System: AMES SALMONELLA TYPHIMURIUM, Strain/Indicator: TA100, Metabolic Activation: HAMSTER, LIVER, S-9, AROCLOR 1254, Method: STANDARD PLATE); “inactive; negative” under setting [3]; “inactive; negative” under setting [7]. The mutagenic call reads like this: (Test System: MOUSE LYMPHOMA, Strain/Indicator: L5178Y (TK+/TK-), Metabolic Activation: NONE, Method: SUSPENSION/PLATE) “active; positive. reevaluation of results: equivocal”; (Test System: MOUSE LYMPHOMA, Strain/Indicator: L5178Y (TK+/TK-), Metabolic Activation: RAT, LIVER, S-9, AROCLOR 1254, Method: SUSPENSION/PLATE) “active; positive. reevaluation of results: equivocal”.
On to `Clc1cccc2ccccc12`, for which the mutagenic call by setting is: (Test System: AMES SALMONELLA TYPHIMURIUM, Strain/Indicator: TA97, Metabolic Activation: HAMSTER, LIVER, S-9, AROCLOR 1254 (10%), Method: PREINCUBATION) “inactive; negative”; (Test System: AMES SALMONELLA TYPHIMURIUM, Strain/Indicator: TA97, Metabolic Activation: HAMSTER, LIVER, S-9, AROCLOR 1254 (30%), Method: PREINCUBATION) “active; positive”; (Test System: AMES SALMONELLA TYPHIMURIUM, Strain/Indicator: TA97, Metabolic Activation: NONE, Method: PREINCUBATION) “inactive; negative”; (Test System: AMES SALMONELLA TYPHIMURIUM, Strain/Indicator: TA97, Metabolic Activation: RAT, LIVER, S-9, AROCLOR 1254 (30%), Method: PREINCUBATION) “inactive; negative”; (Test System: AMES SALMONELLA TYPHIMURIUM, Strain/Indicator: TA98, Metabolic Activation: HAMSTER, LIVER, S-9, AROCLOR 1254 (30%), Method: PREINCUBATION) “inactive; negative”; under setting [1], “inactive; negative”. Further, the mutagenic call was “inactive; negative” under setting [5]; “inactive; negative” (Test System: AMES SALMONELLA TYPHIMURIUM, Strain/Indicator: TA98, Metabolic Activation: RAT, LIVER, S-9, AROCLOR 1254 (30%), Method: PREINCUBATION); “inactive; negative” under setting [6]; “inactive; negative” (Test System: AMES SALMONELLA TYPHIMURIUM, Strain/Indicator: TA100, Metabolic Activation: HAMSTER, LIVER, S-9, AROCLOR 1254 (10%), Method: PREINCUBATION); “active; positive” (Test System: AMES SALMONELLA TYPHIMURIUM, Strain/Indicator: TA100, Metabolic Activation: HAMSTER, LIVER, S-9, AROCLOR 1254 (30%), Method: PREINCUBATION); “inactive; negative” under setting [2]. The mutagenic call is, setting by setting: under setting [3], “inactive; negative”; (Test System: AMES SALMONELLA TYPHIMURIUM, Strain/Indicator: TA100, Metabolic Activation: RAT, LIVER, S-9, AROCLOR 1254 (10 OR 30%), Method: PREINCUBATION) “inactive; negative”; under setting [7], “inactive; negative”; (Test System: AMES SALMONELLA TYPHIMURIUM, Strain/Indicator: TA1535, Metabolic Activation: HAMSTER, LIVER, S-9, AROCLOR 1254 (10 OR 30%), Method: PREINCUBATION) “inactive; negative”; under setting [4], “inactive; negative”; (Test System: AMES SALMONELLA TYPHIMURIUM, Strain/Indicator: TA1535, Metabolic Activation: RAT, LIVER, S-9, AROCLOR 1254 (30%), Method: PREINCUBATION) “inactive; negative”.
On to `Oc1cccc2[nH]c3ccccc3c12`, for which the mutagenic call (Test System: CHINESE HAMSTER OVARY, Strain/Indicator: CHO-K1-BH4 (HGPRT)/6-THIOGUANINE, Metabolic Activation: RAT, LIVER, S-9, AROCLOR (4%)) was “active; positive”.
